{"source": "patent US10781456B2", "about": "“Carbon-neutral and carbon-positive photorespiration bypass routes supporting higher photosynthetic rate and yield” (Max-Planck-Gesellschaft zur Förderung der Wissenschaften …, priority 2015, dated 2020)", "assay_type_in_all_cases": "biochemical", "key": {"[1]": {"tested_on": "malonyl-CoA reductase from Erythrobacter sp. NAP1 (MCRE), SEQ ID NO: 10", "assay": "MCRE activity for conversion of tartronyl-CoA into glycerate (reactions 4# and 5), NADPH oxidation", "conditions": "37° C., assay as for MCRCa; n=2"}, "[2]": {"molecular_target": "T1, malonyl-CoA reductase from Chloroflexus aurantiacus (MCRCa), SEQ ID NO: 8 (Chloroflexus aurantiacus, UniProt Q6QQP7)", "T1 sequence (Q6QQP7 1-1220)": "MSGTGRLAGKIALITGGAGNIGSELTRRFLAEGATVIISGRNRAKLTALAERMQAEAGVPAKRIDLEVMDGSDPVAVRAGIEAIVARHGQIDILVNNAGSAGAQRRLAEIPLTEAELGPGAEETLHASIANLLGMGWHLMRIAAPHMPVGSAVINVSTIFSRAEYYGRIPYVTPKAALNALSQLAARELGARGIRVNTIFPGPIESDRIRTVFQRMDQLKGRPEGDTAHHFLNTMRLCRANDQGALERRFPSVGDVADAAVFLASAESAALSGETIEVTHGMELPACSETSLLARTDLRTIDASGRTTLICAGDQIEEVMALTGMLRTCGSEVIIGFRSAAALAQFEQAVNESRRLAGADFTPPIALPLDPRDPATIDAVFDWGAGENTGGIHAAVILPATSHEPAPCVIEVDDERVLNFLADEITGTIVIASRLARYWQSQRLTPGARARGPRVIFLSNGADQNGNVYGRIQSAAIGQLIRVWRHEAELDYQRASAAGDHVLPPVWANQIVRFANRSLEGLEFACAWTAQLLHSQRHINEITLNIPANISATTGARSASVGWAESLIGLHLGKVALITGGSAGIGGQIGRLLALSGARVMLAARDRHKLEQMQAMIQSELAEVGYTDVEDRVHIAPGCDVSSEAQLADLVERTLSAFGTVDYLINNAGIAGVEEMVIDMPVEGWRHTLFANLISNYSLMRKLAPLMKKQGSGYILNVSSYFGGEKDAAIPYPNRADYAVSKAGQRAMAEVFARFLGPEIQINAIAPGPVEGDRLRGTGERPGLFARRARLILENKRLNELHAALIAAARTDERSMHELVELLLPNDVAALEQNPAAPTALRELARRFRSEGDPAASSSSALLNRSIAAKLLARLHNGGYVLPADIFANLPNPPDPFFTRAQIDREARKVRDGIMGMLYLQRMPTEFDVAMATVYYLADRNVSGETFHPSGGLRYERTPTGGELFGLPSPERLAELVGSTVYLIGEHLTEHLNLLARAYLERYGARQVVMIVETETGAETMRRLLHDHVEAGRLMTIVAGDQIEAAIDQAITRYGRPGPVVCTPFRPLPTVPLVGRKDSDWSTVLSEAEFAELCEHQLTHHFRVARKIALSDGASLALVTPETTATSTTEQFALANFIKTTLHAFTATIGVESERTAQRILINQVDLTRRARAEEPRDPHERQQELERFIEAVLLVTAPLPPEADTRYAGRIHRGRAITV", "assay": "MCRCa activity for conversion of tartronyl-CoA into glycerate (reactions 4# and 5), NADPH oxidation", "conditions": "FIG. 8D and Table 5; 37° C., pH 7.5, 0.4 mM NADPH; n=3", "method": "For the heterologous expression of the MCRCa protein (amino acid sequence is shown in SEQ ID NO: 8; corresponding nucleic acid sequence encoding the protein is depicted in SEQ ID NO: 7) the previously described pTRC-MCRCa plasmid (Kröger et al., 2011, Analytical biochemistry, 411(1), 100-105) was employed.\nCells were harvested at 10 000×g for 10 min and cell pellets were stored at −80° C. until purification of enzymes. Cell pellets of MCRCa and MCRE overexpressing cells were resuspended in two-fold volume of buffer AStrep (50 mM Tris/HCl, 150 mM NaCl, pH 7.8) containing 0.1 mg mL^−1 DNAse I. The cell suspension was passed through a French pressure cell twice at a pressure of 137 MPa and centrifuged at 100 000×g and 4° C. for 1 h. The supernatant was filtered through a 0.45 μm syringe filter and loaded at a flow rate of 1 mL min^−1 onto a 1 mL StrepTrap™ HP column (GE healthcare) which had previously been equilibrated with 5 column volumes of buffer AStrep. The column was washed with 20 column volumes of buffer AStrep and the protein was eluted with buffer AStrep containing 3 mM desthiobiotin. […]\nThe kinetics of the MCRCa enzyme for enzymatically converting the substrate tartonyl-CoA into glycerate (via reactions 4# and 5 both catalyzed by MCRCa) were determined spectrophotometrically at 365 nm following the oxidation of NADPH. […]"}, "[3]": {"molecular_target": "T2, propionyl-CoA carboxylase from Methylobacterium extorquens (PCCMe) variant PCCMe_D407I_Y143H (pccA SEQ ID NO: 2; pccB_D407I_Y143H SEQ ID NO: 6) (Methylorubrum extorquens, UniProt C5AP75+C5AWU5, D407I/Y143H)", "T2 sequence (C5AP75 1-510 Y143H/D407I)": "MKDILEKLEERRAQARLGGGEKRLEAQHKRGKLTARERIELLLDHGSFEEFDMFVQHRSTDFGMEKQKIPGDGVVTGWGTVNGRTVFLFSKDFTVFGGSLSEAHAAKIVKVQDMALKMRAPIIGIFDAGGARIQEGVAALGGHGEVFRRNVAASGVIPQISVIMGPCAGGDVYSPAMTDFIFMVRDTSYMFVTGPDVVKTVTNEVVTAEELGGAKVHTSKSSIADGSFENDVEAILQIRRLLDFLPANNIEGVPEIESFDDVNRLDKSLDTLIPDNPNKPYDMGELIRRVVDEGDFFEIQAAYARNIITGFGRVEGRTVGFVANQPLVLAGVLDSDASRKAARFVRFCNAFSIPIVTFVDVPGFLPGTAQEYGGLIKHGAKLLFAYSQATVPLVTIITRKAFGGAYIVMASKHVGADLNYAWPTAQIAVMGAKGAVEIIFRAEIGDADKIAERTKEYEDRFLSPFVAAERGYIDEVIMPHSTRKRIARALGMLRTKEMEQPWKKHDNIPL", "T2 sequence (C5AWU5 1-667)": "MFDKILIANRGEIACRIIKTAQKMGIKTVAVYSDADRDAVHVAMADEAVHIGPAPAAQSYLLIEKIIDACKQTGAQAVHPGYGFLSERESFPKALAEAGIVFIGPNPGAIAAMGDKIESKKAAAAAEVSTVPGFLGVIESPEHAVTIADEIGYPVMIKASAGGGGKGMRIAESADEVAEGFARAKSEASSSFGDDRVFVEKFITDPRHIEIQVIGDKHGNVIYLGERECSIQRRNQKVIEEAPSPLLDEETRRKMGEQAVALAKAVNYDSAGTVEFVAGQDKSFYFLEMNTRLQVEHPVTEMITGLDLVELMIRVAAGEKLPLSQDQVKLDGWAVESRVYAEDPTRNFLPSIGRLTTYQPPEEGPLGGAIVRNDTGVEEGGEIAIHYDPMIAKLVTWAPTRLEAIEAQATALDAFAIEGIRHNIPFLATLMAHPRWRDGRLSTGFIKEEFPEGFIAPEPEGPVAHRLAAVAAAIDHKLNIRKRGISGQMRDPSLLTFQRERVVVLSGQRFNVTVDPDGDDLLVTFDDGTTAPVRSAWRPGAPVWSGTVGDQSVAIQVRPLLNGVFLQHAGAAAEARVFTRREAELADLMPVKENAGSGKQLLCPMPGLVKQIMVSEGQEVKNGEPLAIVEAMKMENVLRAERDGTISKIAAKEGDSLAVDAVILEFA", "assay": "PCCMe_D407I_Y143H activity for conversion of glycolyl-CoA into tartronyl-CoA (reaction 3#), coupled ATP hydrolysis (PK/LDH) assay", "conditions": "37° C., pH 7.7, ATP hydrolysis assay, 0.125-3 mM glycolyl-CoA; n=2"}}}
{"smiles": "CC(C)(COP(=O)(O)OP(=O)(O)OC[C@H]1O[C@@H](n2cnc3c(N)ncnc32)[C@H](O)[C@@H]1OP(=O)(O)O)[C@@H](O)C(=O)NCCC(=O)NCCSC(=O)C(O)C(=O)O", "note": "(stereo partly shown) [tartronyl-CoA]", "values": [{"measurement": "Km", "setting": "[1]", "value": "180 ± 40", "unit": "µM"}, {"measurement": "vmax", "setting": "[1]", "value": "0.23±0.01", "unit": "U mg^−1"}, {"measurement": "vmax", "setting": "[2]", "value": "0.6 ± 0.01", "unit": "U mg^−1"}]}
{"smiles": "CC(C)(COP(=O)(O)OP(=O)(O)OC[C@H]1O[C@@H](n2cnc3c(N)ncnc32)[C@H](O)[C@@H]1OP(=O)(O)O)[C@@H](O)C(=O)NCCC(=O)NCCSC(=O)CO", "note": "[glycolyl-CoA]", "values": [{"measurement": "vmax", "setting": "[3]", "value": "1.5 ± 0.09", "unit": "U mg^−1"}]}
